Measured values from ChEMBL document CHEMBL1151036, “Synthesis and HIV-1 inhibition of novel benzimidazole derivatives” (Bioorg Med Chem Lett, 1995).
pEC50: −log10 of the molar value.

Columns and labels:
C8166 [1] = experiment: Inhibitory activity against HIV-111B in C8166 cells; assay type: functional, cell-based; conditions: Homo sapiens
C8166 [2] = experiment: Compound was tested for toxicity against HIV-111B in C8166 cells; assay type: functional; conditions: Homo sapiens, read-out: TC50 (the source's name)
[3] = Selectivity ratio of TC50 to that of EC50; assay type: functional
[4] = target: Human immunodeficiency virus type 1 reverse transcriptase (Human immunodeficiency virus 1) (UniProt Q72547); experiment: Concentration required for inhibition of HIV-1 reverse transcriptase (RT)
[5] = target: Human immunodeficiency virus type 1 reverse transcriptase (Human immunodeficiency virus 1) (UniProt Q72547); experiment: Compound was tested for % inhibition of HIV-1 reverse transcriptase (RT); conditions: concentration not given here
C8166 [6] = experiment: Compound was tested for toxicity against HIV-111B in C8166 cells; value ranges from 20-30 uM; assay type: functional; conditions: Homo sapiens, read-out: TC50 (the source's name)
[7] = Selectivity ratio of TC50 to that of EC50; value ranges from 12.5-19; assay type: functional
[8] = Selectivity ratio of TC50 to that of EC50; value ranges from 33-50; assay type: functional

pEC50 (C8166 [1]) | Concentration [4] [µM] | inhibition [5] [%] | Compound | CC50 (C8166 [2]) [µM] | Ratio [3] | CC50 (C8166 [6]) [µM] | Ratio [7] | Ratio [8]
5.49 |  |  | CCCOn1c(CC)nc2ccc(OC)cc21 | 100 | 31 |  |  | 
6.22 | 10 | 50 | CCCOn1c(CC)nc2ccc(Cl)cc21 | 40 | 67 |  |  | 
5.80 |  |  | CCCOn1c(CC)nc2ccc(C)cc21 |  |  | 20 | 12.5 | 
5.70 |  |  | CCCOn1c(CC)nc2ccccc21 | 100 |  |  |  | 33

Second part, the compound before the results:

Compound | pEC50 (C8166 [1]) | Concentration [4] [µM] | inhibition [5] [%] | CC50 (C8166 [2]) [µM] | Ratio [3] | CC50 (C8166 [6]) [µM] | Ratio [7] | Ratio [8]
CCCn1c(SC)nc2c(C)cccc21 | 5.40 |  |  | 100 | 25 |  |  | 
CC(C)=CCN1Cc2cc(Cl)cc3[nH]c(=S)n(c23)C[C@@H]1C | 8.70 | 0.16 | 50 | 62 | 31000 |  |  | 
CCCn1c(SC)nc2c(CBr)cccc21 | 5.10 |  |  | 80 | 10 |  |  | 
CCCOn1c(CC)nc2c(C)cccc21 | 5.22 | 100 | 66 | 1000 | 167 |  |  | 
Cc1cn([C@H]2C[C@H](N=[N+]=[N-])[C@@H](CO)O2)c(=O)[nH]c1=O [ZIDOVUDINE] |  |  |  | > 1000 |  |  |  | 
